Test results published in ChEMBL document CHEMBL5260845, “Flavone-based arylamides as potential anticancers: Design, synthesis and in vitro cell-based/cell-free evaluations” (2020).
Calls of active or inactive are those of the source.

Experiments:
SF-295 [1] = experiment: Antiproliferative activity against human SF-295 cells assessed as cell growth inhibition at 10 uM by SRB assay relative to control; format: functional
SNB-75 = experiment: Antiproliferative activity against human SNB-75 cells assessed as cell growth inhibition at 10 uM by SRB assay relative to control; format: functional
SK-MEL-28 = experiment: Antiproliferative activity against human SK-MEL-28 cells assessed as cell growth inhibition at 10 uM by SRB assay relative to control; format: functional
SK-MEL-5 = experiment: Antiproliferative activity against human SK-MEL-5 cells assessed as cell growth inhibition at 10 uM by SRB assay relative to control; format: functional
Malme-3M = experiment: Antiproliferative activity against human Malme-3M cells assessed as cell growth inhibition at 10 uM by SRB assay relative to control; format: functional
CCRF-CEM = experiment: Antiproliferative activity against human CCRF-CEM cells assessed as cell growth inhibition at 10 uM by SRB assay; format: functional, cell-based
HL-60 = experiment: Antiproliferative activity against human HL-60 cells assessed as cell growth inhibition at 10 uM by SRB assay; format: functional, cell-based
K562 = experiment: Antiproliferative activity against human K562 cells assessed as cell growth inhibition at 10 uM by SRB assay; format: functional, cell-based
MOLT-4 = experiment: Antiproliferative activity against human MOLT-4 cells assessed as cell growth inhibition at 10 uM by SRB assay; format: functional, cell-based
RPMI-8226 = experiment: Antiproliferative activity against human RPMI-8226 cells assessed as cell growth inhibition at 10 uM by SRB assay; format: functional, cell-based
SR = experiment: Antiproliferative activity against human SR cells assessed as cell growth inhibition at 10 uM by SRB assay; format: functional, cell-based
A549 = experiment: Antiproliferative activity against human A549 cells assessed as cell growth inhibition at 10 uM by SRB assay; format: functional, cell-based
EKVX = experiment: Antiproliferative activity against human EKVX cells assessed as cell growth inhibition at 10 uM by SRB assay; format: functional
HOP-62 = experiment: Antiproliferative activity against human HOP-62 cells assessed as cell growth inhibition at 10 uM by SRB assay; format: functional, cell-based
HOP-92 = experiment: Antiproliferative activity against human HOP-92 cells assessed as cell growth inhibition at 10 uM by SRB assay; format: functional, cell-based
NCI-H226 = experiment: Antiproliferative activity against human NCI-H226 cells assessed as cell growth inhibition at 10 uM by SRB assay; format: functional
NCI-H23 = experiment: Antiproliferative activity against human NCI-H23 cells assessed as cell growth inhibition at 10 uM by SRB assay; format: functional
NCI-H322M = experiment: Antiproliferative activity against human NCI-H322M cells assessed as cell growth inhibition at 10 uM by SRB assay; format: functional, cell-based
NCI-H460 = experiment: Antiproliferative activity against human NCI-H460 cells assessed as cell growth inhibition at 10 uM by SRB assay; format: functional, cell-based
NCI-H522 = experiment: Antiproliferative activity against human NCI-H522 cells assessed as cell growth inhibition at 10 uM by SRB assay; format: functional, cell-based
HCT-116 = experiment: Antiproliferative activity against human HCT-116 cells assessed as cell growth inhibition at 10 uM by SRB assay relative to control; format: functional
SF-268 = experiment: Antiproliferative activity against human SF-268 cells assessed as cell growth inhibition at 10 uM by SRB assay relative to control; format: functional
U-251 = experiment: Antiproliferative activity against human U-251 cells assessed as cell growth inhibition at 10 uM by SRB assay relative to control; format: functional
SF-539 = experiment: Antiproliferative activity against human SF-539 cells assessed as cell growth inhibition at 10 uM by SRB assay relative to control; format: functional
SNB-19 = experiment: Antiproliferative activity against human SNB-19 cells assessed as cell growth inhibition at 10 uM by SRB assay relative to control; format: functional
SF-295 [2] = experiment: Antiproliferative activity against human SF-295 cells assessed as cell growth inhibition at 10 uM by SRB assay; format: functional, cell-based
SK-MEL-2 = experiment: Antiproliferative activity against human SK-MEL-2 cells assessed as cell growth inhibition at 10 uM by SRB assay relative to control; format: functional
UACC-257 = experiment: Antiproliferative activity against human UACC-257 cells assessed as cell growth inhibition at 10 uM by SRB assay relative to control; format: functional
UACC-62 = experiment: Antiproliferative activity against human UACC-62 cells assessed as cell growth inhibition at 10 uM by SRB assay relative to control; format: functional
M14 = experiment: Antiproliferative activity against human M14 cells assessed as cell growth inhibition at 10 uM by SRB assay relative to control; format: functional
LOX IMVI = experiment: Antiproliferative activity against human LOX IMVI cells assessed as cell growth inhibition at 10 uM by SRB assay relative to control; format: functional
MDA-MB-435 = experiment: Antiproliferative activity against human MDA-MB-435 cells assessed as cell growth inhibition at 10 uM by SRB assay relative to control; format: functional
OVCAR-4 = experiment: Antiproliferative activity against human OVCAR-4 cells assessed as cell growth inhibition at 10 uM by SRB assay relative to control; format: functional
OVCAR-8 = experiment: Antiproliferative activity against human OVCAR-8 cells assessed as cell growth inhibition at 10 uM by SRB assay relative to control; format: functional
OVCAR-3 = experiment: Antiproliferative activity against human OVCAR-3 cells assessed as cell growth inhibition at 10 uM by SRB assay relative to control; format: functional; details: pooled result: one value given for 2 cell lines, strains, targets or settings
IGROV-1 = experiment: Antiproliferative activity against human IGROV-1 cells assessed as cell growth inhibition at 10 uM by SRB assay relative to control; format: functional
786-0 = experiment: Antiproliferative activity against human 786-0 cells assessed as inhibition of cell growth at 10 uM by SRB assay relative to control; format: functional
ACHN = experiment: Antiproliferative activity against human ACHN cells assessed as inhibition of cell growth at 10 uM by SRB assay relative to control; format: functional; details: pooled result: one value given for 2 cell lines, strains, targets or settings
RXF 393 = experiment: Antiproliferative activity against human RXF 393 cells assessed as inhibition of cell growth at 10 uM by SRB assay relative to control; format: functional
SN12C = experiment: Antiproliferative activity against human SN12C cells assessed as inhibition of cell growth at 10 uM by SRB assay relative to control; format: functional
A498 = experiment: Antiproliferative activity against human A498 cells assessed as inhibition of cell growth at 10 uM by SRB assay relative to control; format: functional
DU-145 = experiment: Antiproliferative activity against human DU-145 cells assessed as inhibition of cell growth at 10 uM by SRB assay relative to control; format: functional
MDA-MB-231 = experiment: Antiproliferative activity against human MDA-MB-231 cells assessed as inhibition of cell growth at 10 uM by SRB assay relative to control; format: functional
Hs-578T = experiment: Antiproliferative activity against human Hs-578T cells assessed as inhibition of cell growth at 10 uM by SRB assay relative to control; format: functional
MCF7 = experiment: Antiproliferative activity against estrogen receptor positive human MCF7 cells assessed as inhibition of cell growth at 10 uM by SRB assay relative to control; format: functional
T47D = experiment: Antiproliferative activity against human T47D cells assessed as inhibition of cell growth at 10 uM by SRB assay relative to control; format: functional
BT-549 = experiment: Antiproliferative activity against triple negative human BT-549 cells assessed as inhibition of cell growth at 10 uM by SRB assay relative to control; format: functional

COc1cc2oc(-c3cccc(NC(=O)c4ccc(Br)cc4)c3)cc(=O)c2c(OC)c1OC
73.4%: inhibition at 10 µM (MDA-MB-231) | inhibition at 10 µM (Hs-578T)
39.07%: inhibition (INH) (SK-MEL-2; dose 10 µM)
84%: inhibition at 10 µM (HCT-116) | inhibition at 10 µM (786-0)
39.1%: inhibition at 10 µM (Malme-3M) | inhibition at 10 µM (UACC-257) | inhibition at 10 µM (UACC-62)
< 50%: inhibition at 10 µM (EKVX) | inhibition at 10 µM (NCI-H226) | inhibition at 10 µM (NCI-H23)
≤ 46%: inhibition at 10 µM (SK-MEL-2; Homo sapiens, SK-MEL-2, dose 10 µM)
50.8%: inhibition at 10 µM (SK-MEL-28) | inhibition at 10 µM (SK-MEL-5) | inhibition at 10 µM (M14) | inhibition at 10 µM (LOX IMVI) | inhibition at 10 µM (MDA-MB-435)
47.1%: inhibition at 10 µM (SF-539)
63.6%: inhibition at 10 µM (ACHN) | inhibition at 10 µM (RXF 393) | inhibition at 10 µM (SN12C) | inhibition at 10 µM (A498)
41.2%: inhibition at 10 µM (SNB-19)
active: inhibition (CCRF-CEM) | inhibition (HL-60) | inhibition (K562) | inhibition (MOLT-4) | inhibition (RPMI-8226) | inhibition (SR) | inhibition (A549) | inhibition (EKVX) | inhibition (HOP-62) | inhibition (HOP-92) | inhibition (NCI-H226) | inhibition (NCI-H23) | inhibition (NCI-H322M) | inhibition (NCI-H460) | inhibition (NCI-H522) | inhibition (SF-295 [2])
> 50%: inhibition at 10 µM (SF-295 [1]) | inhibition at 10 µM (SNB-75) | inhibition at 10 µM (SF-268) | inhibition at 10 µM (U-251) | inhibition at 10 µM (DU-145)
52.9%: inhibition at 10 µM (OVCAR-4) | inhibition at 10 µM (OVCAR-8) | inhibition at 10 µM (OVCAR-3) | inhibition at 10 µM (IGROV-1)

CN(Cc1cnc2nc(N)nc(N)c2n1)c1ccc(C(=O)N[C@@H](CCC(=O)O)C(=O)O)cc1 [METHOTREXATE]
53.8%: inhibition at 10 µM (T47D)
53.1%: inhibition at 10 µM (BT-549)
40.1%: inhibition at 10 µM (MDA-MB-231)
82.8%: inhibition at 10 µM (MCF7)
